These results are taken from PubChem BioAssay (NCI).

Test systems include HS 578T breast; A549 NSCLC; MDA-MB-435; SK-MEL-28 melanoma; MOLT-4 leukemia; MDA-MB-231 breast; SK-MEL-5 melanoma; DMS 114 small cell lung; SNB-78 CNS; KM20L2 colon; M19-MEL melanoma; LXFL 529 NSCLC; XF 498 CNS.
Test in all cases: growth of human tumour cells (NCI), 48 h

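Cells were grown in 96-well plates and exposed to each compound for 48 hours at five concentrations; endpoints were interpolated linearly between bracketing concentrations, or set to the highest concentration if not reached. TGI: total growth inhibition.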

Regarding `C[N+](C)(C)CC(=O)N/N=C/c1ccncc1`, the TGI with HS 578T breast, in the experiment with A549 NSCLC, with MDA-MB-435, in the experiment with SK-MEL-28 melanoma, with MOLT-4 leukemia and with MDA-MB-231 breast was more than 100 µM in each case. The same compound displayed a TGI in the experiment with SK-MEL-5 melanoma of more than 100 µM.

As for `COc1cc2c(cc1OCCCCOc1cc3c(cc1OC)C(=O)N1CCC[C@H]1C(=O)N3)N=C[C@@H]1CCCN1C2=O`, the TGI came to 27.6 µM in the experiment with HS 578T breast; 44.9 µM with A549 NSCLC; 14.4 µM in the experiment with MDA-MB-435; 30.8 µM with SK-MEL-28 melanoma; 4.69 µM with MOLT-4 leukemia; 8.7 µM in the experiment with MDA-MB-231 breast. In addition, in the experiment with SK-MEL-5 melanoma, the TGI was determined as 14.8 µM.

In the case of `CC(C)(C)C1=CC(=C2C(=O)C(=O)c3ccccc3C2=O)C=C(C(C)(C)C)C1=O`, the TGI in the experiment on A549 NSCLC is more than 100 µM; in the experiment with DMS 114 small cell lung, 66.2 µM; with SNB-78 CNS, more than 100 µM; in the experiment with KM20L2 colon, more than 100 µM; with SK-MEL-28 melanoma, more than 100 µM; with M19-MEL melanoma it was more than 100 µM. Also, the TGI in the experiment on LXFL 529 NSCLC and with SK-MEL-5 melanoma was more than 100 µM throughout.

Regarding `O=C(CCCl)NNC1=NCCCN1`, the TGI in the experiment with HS 578T breast, with A549 NSCLC, with MDA-MB-435, in the experiment with SK-MEL-28 melanoma, with MOLT-4 leukemia and in the experiment on MDA-MB-231 breast was more than 100 µM throughout. The TGI in the experiment with SK-MEL-5 melanoma is more than 100 µM.

For the compound `CSc1ccc(/C=C2\N=C(c3ccccc3)N(c3nc4cc(C)c(C)cc4s3)C2=O)cc1`, the TGI in the experiment on HS 578T breast was 92.1 µM; with A549 NSCLC, 89.7 µM; with MDA-MB-435 it was 37.7 µM; with SK-MEL-28 melanoma, more than 100 µM; in the experiment with MOLT-4 leukemia it was more than 100 µM; in the experiment with MDA-MB-231 breast, more than 100 µM. The TGI in the experiment on SK-MEL-5 melanoma amounted to 84.5 µM.

For the compound `COc1ccc2nc3ccc(OC)cc3c(SCc3ccccc3)c2c1`, the TGI was more than 100 µM with HS 578T breast; more than 100 µM with A549 NSCLC; more than 100 µM with MDA-MB-435; more than 100 µM in the experiment on SK-MEL-28 melanoma; more than 83.2 µM with MOLT-4 leukemia; more than 100 µM in the experiment with MDA-MB-231 breast. In addition, in the experiment with SK-MEL-5 melanoma, the TGI was more than 100 µM.

For `CSc1ncc2c(n1)sc1c(=O)n(-c3ccccc3)cnc12`, the TGI in the experiment with HS 578T breast, in the experiment on A549 NSCLC, with MDA-MB-435, in the experiment on SK-MEL-28 melanoma, in the experiment with MOLT-4 leukemia and with MDA-MB-231 breast was more than 100 µM in each case. The compound further returned a TGI with SK-MEL-5 melanoma of more than 100 µM.

`CCOc1cc2oc(C)cc(=O)c2c(OC)c1C=Nc1ccc(Cn2c(C)nc3ccccc32)cc1`: the TGI in the experiment with HS 578T breast, with A549 NSCLC, in the experiment on MDA-MB-435, in the experiment on SK-MEL-28 melanoma, with MOLT-4 leukemia and in the experiment on MDA-MB-231 breast was more than 100 µM each time. Moreover, in the experiment on SK-MEL-5 melanoma, the TGI was more than 100 µM.

In the case of `COC1OC(COC(=O)c2cc(O)c(O)c(O)c2)C(OC(=O)c2cc(O)c(O)c(O)c2)C(OC(=O)c2cc(O)c(O)c(O)c2)C1OC(=O)c1cc(O)c(O)c(O)c1` (configuration not stated), the TGI is more than 100 µM with HS 578T breast; more than 100 µM in the experiment on A549 NSCLC; 25.7 µM in the experiment on MDA-MB-435; more than 100 µM in the experiment with SK-MEL-28 melanoma; 70.6 µM with MOLT-4 leukemia; more than 100 µM in the experiment with MDA-MB-231 breast. Also, the TGI in the experiment with SK-MEL-5 melanoma was more than 100 µM.

For `CCOP(=O)(OCC)/C(C#N)=C/c1cnc[nH]1`, the TGI with HS 578T breast, in the experiment with A549 NSCLC, with MDA-MB-435, with SK-MEL-28 melanoma, with MOLT-4 leukemia and in the experiment on MDA-MB-231 breast was more than 100 µM throughout. Besides, the TGI in the experiment on SK-MEL-5 melanoma was more than 100 µM.

On to `COc1ccc2[nH]c3c(C)c4ccnc(NCCCN(C)CCCNc5ccc6ncn7c8ccccc8c(=O)c5c67)c4c(C)c3c2c1`, for which the TGI with HS 578T breast worked out at 25 µM; in the experiment with A549 NSCLC, 1.48 µM; in the experiment with MDA-MB-435 it was 4.45 µM; with SK-MEL-28 melanoma, 21.9 µM; with MOLT-4 leukemia, 3.13 µM; in the experiment on MDA-MB-231 breast, 1.2 µM. Further, the TGI with SK-MEL-5 melanoma came out at 4.61 µM.

`COc1cc(-c2[o+]c3cc(O)cc(O)c3cc2O)cc(O)c1O`: the TGI in the experiment on HS 578T breast is more than 100 µM; in the experiment on A549 NSCLC it was more than 100 µM; in the experiment with MDA-MB-435, 38.3 µM; in the experiment with SK-MEL-28 melanoma, more than 100 µM; in the experiment with MOLT-4 leukemia, more than 100 µM; with MDA-MB-231 breast, more than 100 µM. Moreover, the TGI in the experiment with SK-MEL-5 melanoma was more than 100 µM.

In the case of `O=C(CSc1nc2ccc(I)cc2c(=O)n1Cc1ccccc1)NNC(=O)c1ccccc1`, the TGI in the experiment with HS 578T breast was 9.4 µM; with A549 NSCLC, 32.6 µM; in the experiment on MDA-MB-435 it was more than 100 µM; with SK-MEL-28 melanoma, 36.6 µM; in the experiment on MOLT-4 leukemia, 23.5 µM; with MDA-MB-231 breast it was 28.2 µM. The same compound showed a TGI with SK-MEL-5 melanoma of 33 µM.

Turning to `O=C(O)CCCc1ccc2ccccc2c1`, the TGI in the experiment on HS 578T breast, in the experiment on A549 NSCLC, in the experiment with MDA-MB-435, in the experiment with SK-MEL-28 melanoma, in the experiment with MOLT-4 leukemia and in the experiment with MDA-MB-231 breast was more than 100 µM each time. Also, the TGI with SK-MEL-5 melanoma was more than 100 µM.

In the case of `O=c1c2cc(Cl)cc(Cl)c2oc2nc3n(c(=O)c12)CCCS3`, the TGI in the experiment with HS 578T breast, in the experiment with A549 NSCLC, in the experiment with MDA-MB-435, in the experiment with SK-MEL-28 melanoma, in the experiment on MOLT-4 leukemia and in the experiment with MDA-MB-231 breast was more than 100 µM in each case. In the experiment on SK-MEL-5 melanoma, this compound registered a TGI of more than 100 µM.

As for `c1ccc2c(c1)NC1(N3CCCCC3)CCCCC21` (configuration not stated), the TGI in the experiment with HS 578T breast is more than 100 µM; in the experiment on A549 NSCLC, more than 100 µM; in the experiment on MDA-MB-435 it was more than 100 µM; in the experiment with SK-MEL-28 melanoma, more than 100 µM; in the experiment with MOLT-4 leukemia it was 85.1 µM; in the experiment on MDA-MB-231 breast, more than 100 µM. Besides, the TGI in the experiment with SK-MEL-5 melanoma was more than 100 µM.

As for `Cc1c2ccncc2c(C)c2c1[nH]c1ccc(OCC(F)(F)F)cc12`, the TGI in the experiment with A549 NSCLC is 3.3 µM; in the experiment with XF 498 CNS it was 3.07 µM; with SNB-78 CNS it was 5.47 µM; in the experiment with KM20L2 colon it was 2.78 µM; in the experiment with SK-MEL-28 melanoma it was 3.15 µM; in the experiment on M19-MEL melanoma, 3.49 µM. Besides, the TGI in the experiment with MOLT-4 leukemia stood at 3.26 µM; with LXFL 529 NSCLC, 2.43 µM; in the experiment on SK-MEL-5 melanoma, 3.35 µM.
